Some test systems named below: T-47D breast; SK-MEL-5 melanoma; HCT-116 colon; DU-145 prostate; HS 578T breast; U251 CNS; OVCAR-5 ovarian; HOP-92 NSCLC; MOLT-4 leukemia; SF-295 CNS; CCRF-CEM leukemia; HCT-15 colon; SW-620 colon; COLO 205 colon.
Common to all, as to assay: NCI tumour cell line growth inhibition, 48 h

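Cultured in 96-well plates, cells were exposed to test compound for 48 hours across five concentrations. Here, GI50 denotes the concentration required for 50% inhibition of growth. TGI: concentration producing complete growth inhibition.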

Take `COc1ccc(C2CC(c3c(O)ccc4ccccc34)=NN2c2ccc([N+](=O)[O-])cc2[N+](=O)[O-])cc1OC` (configuration not stated): the TGI is 79.7 µM with T-47D breast; 30.2 µM in the assay on SK-MEL-5 melanoma; over 100 µM in the assay on HCT-116 colon; over 100 µM in the assay on DU-145 prostate; over 89.7 µM with HS 578T breast; over 100 µM in the assay on U251 CNS. For the same compound, the TGI was over 90.6 µM in the assay on OVCAR-5 ovarian; 58.7 µM in the assay on HOP-92 NSCLC; 21.5 µM with MOLT-4 leukemia; over 87.1 µM in the assay on SF-295 CNS; over 50.3 µM with CCRF-CEM leukemia; over 100 µM with HCT-15 colon. Also, the TGI in the assay with SW-620 colon is over 100 µM; in the assay with COLO 205 colon, 49 µM.

As for `O=C(O)CN(CCNC(=O)OCC1c2ccccc2-c2ccccc21)CCNC(=O)OCC1c2ccccc2-c2ccccc21`, the TGI in the assay on T-47D breast is 49.9 µM; with SK-MEL-5 melanoma it was 36.8 µM; in the assay on HCT-116 colon, 31.9 µM; in the assay on DU-145 prostate, 35.8 µM; in the assay on HS 578T breast, over 100 µM; in the assay with U251 CNS it was 38.4 µM. For the same compound, the TGI with OVCAR-5 ovarian is 96.3 µM; in the assay with HOP-92 NSCLC, 42.7 µM; in the assay on MOLT-4 leukemia, 49.3 µM; in the assay on SF-295 CNS it was 54.7 µM; with CCRF-CEM leukemia it was 63 µM; in the assay on HCT-15 colon, 70.3 µM. Also, the TGI stood at 42.3 µM in the assay on SW-620 colon and 40.7 µM with COLO 205 colon.

On to `COc1cc(-c2cc(=O)c3cc4c(cc3[nH]2)OCO4)cc(OC)c1O`, for which the TGI with T-47D breast, in the assay with SK-MEL-5 melanoma, with HCT-116 colon, in the assay on DU-145 prostate, with HS 578T breast and with U251 CNS was over 10 µM throughout. The TGI in the assay on OVCAR-5 ovarian, in the assay on HOP-92 NSCLC, in the assay with MOLT-4 leukemia, with SF-295 CNS, with CCRF-CEM leukemia and in the assay on HCT-15 colon was over 10 µM each time. For the same compound, the TGI with SW-620 colon and in the assay with COLO 205 colon was over 10 µM in each case.

In the case of `O=C(CN1c2ccccc2Sc2ccccc21)N1CCNCC1`, the TGI with T-47D breast, with SK-MEL-5 melanoma, in the assay on HCT-116 colon, in the assay on DU-145 prostate, in the assay with HS 578T breast and in the assay on U251 CNS was over 100 µM each time. Further, the TGI in the assay with OVCAR-5 ovarian, in the assay with HOP-92 NSCLC, in the assay with MOLT-4 leukemia, with SF-295 CNS, with CCRF-CEM leukemia and in the assay with HCT-15 colon was over 100 µM each time. The TGI in the assay on SW-620 colon and with COLO 205 colon was over 100 µM in each case.

As to `CN(C)CCCOc1nc2c(c(=O)n(C)c(=O)n2C)n1C` (tested in a mixture with another compound), the TGI was over 100 µM with T-47D breast; 48.6 µM in the assay on SK-MEL-5 melanoma; over 100 µM with HCT-116 colon; 39.5 µM in the assay on DU-145 prostate; over 100 µM in the assay with HS 578T breast; over 100 µM in the assay with U251 CNS. Further, the TGI in the assay with OVCAR-5 ovarian is over 100 µM; in the assay on HOP-92 NSCLC, over 100 µM; in the assay with MOLT-4 leukemia it was 13.9 µM; in the assay on SF-295 CNS, over 100 µM; in the assay on CCRF-CEM leukemia, over 100 µM; in the assay with HCT-15 colon it was 42.9 µM. For the same compound, the TGI in the assay with SW-620 colon and with COLO 205 colon was over 100 µM in each case.

For `CCCc1cc(=O)c2c(C)c3[nH]c4ccc(Cl)cc4c3c(C)c2[nH]1`, the TGI in the assay on T-47D breast came out at 3.88 µM; with SK-MEL-5 melanoma it was 21.4 µM; in the assay with HCT-116 colon, 3.09 µM; in the assay on DU-145 prostate it was 18.9 µM; in the assay on HS 578T breast it was 32.7 µM; in the assay on U251 CNS, 3.65 µM. Also, the TGI was 5.58 µM in the assay with OVCAR-5 ovarian; 5.1 µM in the assay on HOP-92 NSCLC; over 100 µM with MOLT-4 leukemia; 3.96 µM with SF-295 CNS; 5.83 µM in the assay with CCRF-CEM leukemia; 3.37 µM with HCT-15 colon. Moreover, the TGI came out at 4.29 µM with SW-620 colon and 3.89 µM in the assay on COLO 205 colon.

Regarding `CN(C)CCCOC(=O)C(c1ccccc1)C1(O)CCSCC1` (configuration not stated), the TGI in the assay with T-47D breast, in the assay on SK-MEL-5 melanoma, with HCT-116 colon, in the assay on DU-145 prostate, in the assay with HS 578T breast and in the assay on U251 CNS was over 100 µM each time. The TGI in the assay with OVCAR-5 ovarian, with HOP-92 NSCLC, with MOLT-4 leukemia, in the assay with SF-295 CNS, in the assay on CCRF-CEM leukemia and in the assay with HCT-15 colon was over 100 µM each time. Also, the TGI in the assay on SW-620 colon and in the assay with COLO 205 colon was over 100 µM in each case.

`CC(C)(N=NC(C)(C)C(=O)NCCO)C(=O)NCCO`: the TGI with T-47D breast, with SK-MEL-5 melanoma, in the assay with HCT-116 colon, in the assay on DU-145 prostate, in the assay with HS 578T breast and in the assay on U251 CNS was over 100 µM throughout. Moreover, the TGI in the assay on OVCAR-5 ovarian, in the assay with HOP-92 NSCLC, with MOLT-4 leukemia, in the assay with SF-295 CNS, in the assay with CCRF-CEM leukemia and in the assay with HCT-15 colon was over 100 µM each time. The TGI with SW-620 colon and with COLO 205 colon was over 100 µM throughout.

On to `O=C(O)c1cc2c(cc1CC(Cc1ccc3c(c1)CCC3)C(=O)O)CCC2` (configuration not stated), for which the TGI in the assay on T-47D breast, in the assay on SK-MEL-5 melanoma, with HCT-116 colon, in the assay on DU-145 prostate, in the assay on HS 578T breast and in the assay with U251 CNS was over 100 µM in each case. Besides, the TGI in the assay with OVCAR-5 ovarian, with HOP-92 NSCLC, with MOLT-4 leukemia, in the assay on SF-295 CNS, with CCRF-CEM leukemia and in the assay on HCT-15 colon was over 100 µM each time. The TGI in the assay with SW-620 colon and in the assay with COLO 205 colon was over 100 µM each time.

With `NCC1CCN(c2nc3ccccc3c3c2CCCC3)CC1`, the TGI in the assay with T-47D breast is 8.81 µM; in the assay with SK-MEL-5 melanoma it was 7.62 µM; with HCT-116 colon, 9.91 µM; in the assay on DU-145 prostate, 25.9 µM; with HS 578T breast, over 100 µM; in the assay on U251 CNS, 16.2 µM. In addition, the TGI with OVCAR-5 ovarian was 24.7 µM; in the assay with HOP-92 NSCLC, 24.1 µM; with MOLT-4 leukemia, 11.7 µM; in the assay with SF-295 CNS it was 26.7 µM; in the assay with CCRF-CEM leukemia it was 14.2 µM; with HCT-15 colon, 14.9 µM. For the same compound, the TGI with SW-620 colon was determined as 9.34 µM; in the assay with COLO 205 colon, 3.13 µM.

As for `Brc1ccc(CCNCCN2CCCCC2)cc1`, the TGI is 32 µM in the assay on T-47D breast; 20.6 µM in the assay with SK-MEL-5 melanoma; 24.4 µM in the assay with HCT-116 colon; over 100 µM in the assay on DU-145 prostate; 38.1 µM in the assay on HS 578T breast; 32.4 µM in the assay with U251 CNS. Also, the TGI with OVCAR-5 ovarian was 36.2 µM; in the assay with HOP-92 NSCLC it was 23.5 µM; with MOLT-4 leukemia, over 100 µM; in the assay on SF-295 CNS, 32.3 µM; with CCRF-CEM leukemia, over 100 µM; with HCT-15 colon, 33.6 µM. Besides, the figures for the TGI with SW-620 colon and in the assay on COLO 205 colon were 31.1 µM and 25.6 µM, respectively.

As for `O=c1nc(N2CCN(c3ccccc3)CC2)ccn1C1OC(CO)C(O)C1O` (configuration not stated), the TGI is 65.6 µM with T-47D breast; over 100 µM in the assay with SK-MEL-5 melanoma; over 100 µM with HCT-116 colon; over 100 µM with DU-145 prostate; over 100 µM with HS 578T breast; over 100 µM with U251 CNS. Also, the TGI in the assay on OVCAR-5 ovarian, with HOP-92 NSCLC, in the assay with MOLT-4 leukemia, with SF-295 CNS, in the assay with CCRF-CEM leukemia and with HCT-15 colon was over 100 µM each time. The TGI in the assay with SW-620 colon and with COLO 205 colon was over 100 µM throughout.

Consider `Cc1c(F)c(N)c2c(=O)cc(-c3ccc(NC(=O)CN(C)C)c(F)c3)oc2c1F`, for which the TGI in the assay on T-47D breast is over 100 µM; with SK-MEL-5 melanoma, over 100 µM; in the assay on HCT-116 colon, over 100 µM; in the assay with DU-145 prostate, over 100 µM; with HS 578T breast, over 100 µM; in the assay with U251 CNS it was over 81.1 µM. Also, the TGI in the assay with OVCAR-5 ovarian was over 100 µM; in the assay with HOP-92 NSCLC, 99.4 µM; in the assay with MOLT-4 leukemia, over 71.8 µM; in the assay with SF-295 CNS, over 100 µM; with CCRF-CEM leukemia, over 76.6 µM; in the assay on HCT-15 colon, over 100 µM. For the same compound, the TGI is over 74.6 µM in the assay on SW-620 colon and over 100 µM with COLO 205 colon. Further, the GI50 in the assay on HOP-92 NSCLC was over 36.4 µM.

In the case of `CN(CCC#N)c1ccc(/C=C2\SC(=S)NC2=O)cc1`, the TGI in the assay with T-47D breast, in the assay on SK-MEL-5 melanoma, in the assay with HCT-116 colon, in the assay on DU-145 prostate, in the assay with HS 578T breast and with U251 CNS was over 100 µM in each case. Also, the TGI in the assay with OVCAR-5 ovarian, in the assay on HOP-92 NSCLC, in the assay on MOLT-4 leukemia, in the assay on SF-295 CNS, in the assay with CCRF-CEM leukemia and in the assay with HCT-15 colon was over 100 µM each time. Also, the TGI in the assay with SW-620 colon and with COLO 205 colon was over 100 µM each time.

These data come from PubChem BioAssay (NCI).
